Data reported in patent US8501446B2 (Vertex Pharmaceuticals Incorporated, priority 2004, dated 2013).

What was measured:
Format in all cases: biochemical
[1] = molecular target: T1, JAK3 (Homo sapiens, UniProt P52333); assay: JAK3 inhibition assay (standard radioactive enzyme assay); details: average Ki if more than one value determined
T1 sequence (P52333 1-1124): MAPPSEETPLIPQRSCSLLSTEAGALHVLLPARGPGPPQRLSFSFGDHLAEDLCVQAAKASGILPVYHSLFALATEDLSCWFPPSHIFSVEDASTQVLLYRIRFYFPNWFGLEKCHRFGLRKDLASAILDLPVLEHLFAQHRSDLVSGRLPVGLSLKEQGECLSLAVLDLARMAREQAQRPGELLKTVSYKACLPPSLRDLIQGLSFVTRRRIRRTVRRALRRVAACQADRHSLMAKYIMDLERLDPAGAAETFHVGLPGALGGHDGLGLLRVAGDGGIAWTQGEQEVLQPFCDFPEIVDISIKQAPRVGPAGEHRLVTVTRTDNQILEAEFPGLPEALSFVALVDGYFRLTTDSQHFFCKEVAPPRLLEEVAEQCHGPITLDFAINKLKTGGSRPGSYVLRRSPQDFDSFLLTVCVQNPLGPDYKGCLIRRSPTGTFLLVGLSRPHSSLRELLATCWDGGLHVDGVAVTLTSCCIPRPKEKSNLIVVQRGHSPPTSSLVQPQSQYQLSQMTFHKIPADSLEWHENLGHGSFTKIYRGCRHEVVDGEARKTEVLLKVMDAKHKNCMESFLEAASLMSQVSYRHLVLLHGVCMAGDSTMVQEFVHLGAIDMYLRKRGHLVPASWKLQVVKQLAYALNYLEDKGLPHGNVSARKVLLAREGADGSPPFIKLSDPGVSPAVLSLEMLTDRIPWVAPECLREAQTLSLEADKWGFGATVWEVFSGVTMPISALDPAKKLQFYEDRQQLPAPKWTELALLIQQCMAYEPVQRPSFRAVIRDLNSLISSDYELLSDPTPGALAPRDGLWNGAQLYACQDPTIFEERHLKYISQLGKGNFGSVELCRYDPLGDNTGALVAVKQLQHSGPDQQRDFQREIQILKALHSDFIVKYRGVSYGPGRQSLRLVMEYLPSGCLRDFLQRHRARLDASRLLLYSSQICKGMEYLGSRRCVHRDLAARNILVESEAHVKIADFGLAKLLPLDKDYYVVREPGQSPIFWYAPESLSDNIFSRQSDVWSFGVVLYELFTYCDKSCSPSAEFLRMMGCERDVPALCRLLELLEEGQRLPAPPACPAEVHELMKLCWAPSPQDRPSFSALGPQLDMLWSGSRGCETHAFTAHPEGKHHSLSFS
Method: (§1) Compounds were screened for their ability to inhibit JAK3 using a standard radioactive enzyme assay. 1.5 μL/well of a DMSO stock containing serial dilutions of a compound of the present invention (concentrations ranging from 667 μM to 46 nM) was placed in a 96 well polycarbonate plate. 50 μL per well of kinase buffer (100 mM HEPES (pH 7.4), 10 mM MgCl2, 25 mM NaCl, 1 mM DTT, and 0.01% bovine serum albumin (BSA)) containing 2 μM poly(Glu)4Tyr and 10 μM ATP was also added to the plate. To initiate the reaction, 50 μL kinase buffer containing 2 nM JAK3 enzyme was added. Final ATP concentration was 5 μM [γ-^33P] ATP (200 μCi ^33P ATP/μmol ATP (Perkin Elmer, Cambridge, Mass.). After 20 minutes at room temperature (25° C.), the reaction was stopped by adding 50 μL 20% trichloroacetic acid (TCA)/0.4 mM ATP to each well. The entire content of each well was then transferred to a 96 well glass fiber filter plate using a TomTek Cell Harvester. After washing, 60 μL scintillation fluid was added and ^33P incorporation detected using a Perkin Elmer TopCount. After removing mean background values for all of the data points the data was fit using Prism software to obtain a Ki(app). Inhibition of JAK2 was measured as above except that final poly(Glu)4Tyr concentration was 15 μM and final ATP concentration was 12 μM.

[2] = molecular target: JAK2 (Homo sapiens, UniProt O60674); assay: JAK2 inhibition assay (radioactive enzyme assay, as for JAK3); details: average Ki if more than one value determined
JAK2, sequence (O60674 whole entry, species assumed): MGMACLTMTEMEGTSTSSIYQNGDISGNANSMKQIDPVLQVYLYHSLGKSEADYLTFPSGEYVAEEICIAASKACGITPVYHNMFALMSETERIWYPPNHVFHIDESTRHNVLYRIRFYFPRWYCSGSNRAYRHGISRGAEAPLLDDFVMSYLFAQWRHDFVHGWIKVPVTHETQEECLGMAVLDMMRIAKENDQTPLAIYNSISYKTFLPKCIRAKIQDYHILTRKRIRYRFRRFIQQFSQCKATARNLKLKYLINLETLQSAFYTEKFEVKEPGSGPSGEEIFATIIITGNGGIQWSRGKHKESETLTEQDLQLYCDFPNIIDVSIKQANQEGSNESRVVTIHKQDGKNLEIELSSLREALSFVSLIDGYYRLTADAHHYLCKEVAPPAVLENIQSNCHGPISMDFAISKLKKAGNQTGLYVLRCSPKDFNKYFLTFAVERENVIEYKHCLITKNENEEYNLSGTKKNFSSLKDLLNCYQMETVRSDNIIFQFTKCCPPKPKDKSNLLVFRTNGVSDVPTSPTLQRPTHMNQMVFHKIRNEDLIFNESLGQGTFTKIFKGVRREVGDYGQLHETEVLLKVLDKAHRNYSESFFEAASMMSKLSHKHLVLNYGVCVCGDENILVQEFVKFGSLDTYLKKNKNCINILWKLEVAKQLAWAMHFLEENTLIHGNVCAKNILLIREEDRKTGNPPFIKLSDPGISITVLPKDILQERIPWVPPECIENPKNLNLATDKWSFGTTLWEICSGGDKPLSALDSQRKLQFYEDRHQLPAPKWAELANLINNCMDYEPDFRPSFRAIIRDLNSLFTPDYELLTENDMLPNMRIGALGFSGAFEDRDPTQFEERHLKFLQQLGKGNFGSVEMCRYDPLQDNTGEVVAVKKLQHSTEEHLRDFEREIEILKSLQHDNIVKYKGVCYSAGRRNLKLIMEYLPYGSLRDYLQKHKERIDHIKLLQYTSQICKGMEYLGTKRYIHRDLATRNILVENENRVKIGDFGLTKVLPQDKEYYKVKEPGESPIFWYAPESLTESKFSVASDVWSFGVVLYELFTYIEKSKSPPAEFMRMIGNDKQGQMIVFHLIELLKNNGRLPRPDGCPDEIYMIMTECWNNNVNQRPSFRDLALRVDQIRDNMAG
Method: as §1

[3] = molecular target: T2, ROCK I (AA 6-553) (Homo sapiens, UniProt Q13464); assay: ROCK inhibition assay, standard coupled enzyme system ("Enzyme"); details: enzyme-linked assay
T2 construct: ROCK I (AA 6-553)
T2 sequence (Q13464 6-553, species assumed): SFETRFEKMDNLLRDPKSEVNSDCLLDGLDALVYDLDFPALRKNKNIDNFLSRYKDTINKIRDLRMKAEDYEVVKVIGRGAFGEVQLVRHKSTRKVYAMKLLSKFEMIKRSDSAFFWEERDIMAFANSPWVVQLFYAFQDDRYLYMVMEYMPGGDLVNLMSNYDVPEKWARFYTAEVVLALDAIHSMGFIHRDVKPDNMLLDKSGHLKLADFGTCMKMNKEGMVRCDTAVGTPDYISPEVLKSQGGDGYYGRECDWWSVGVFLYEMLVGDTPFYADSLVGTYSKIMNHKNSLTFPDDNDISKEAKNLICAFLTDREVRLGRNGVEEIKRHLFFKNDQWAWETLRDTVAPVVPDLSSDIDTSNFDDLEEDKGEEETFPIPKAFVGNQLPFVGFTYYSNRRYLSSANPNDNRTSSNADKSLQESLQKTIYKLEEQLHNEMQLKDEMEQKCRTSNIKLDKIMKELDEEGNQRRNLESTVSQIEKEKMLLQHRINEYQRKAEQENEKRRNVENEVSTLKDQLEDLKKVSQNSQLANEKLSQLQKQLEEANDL
Procedure, shortened: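 ROCK I (AA 6-553) at 45 nM and 30 °C with 45 μM ATP and 200 μM peptide, in 100 mM HEPES pH 7.5, 10 mM MgCl2, 25 mM NaCl, 2 mM DTT, 1.5% DMSO. ADP output read by a PK/LDH coupled system: 2.5 mM PEP, 350 μM NADH, 30 μg/ml PK, 10 μg/ml LDH.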

SMILES | Ki [1] | Ki [2] | Ki [3]
CC(=O)N1CCCN(c2cccc(-c3c[nH]c4ncc(C)cc34)n2)CC1 [Compound 40] | < 500 nM | < 500 nM | 500 to 5000 nM
CC(=O)N1[C@H](C)CN(c2cccc(-c3c[nH]c4ncc(C(=O)N5CCOCC5)cc34)n2)C[C@@H]1C [Compound 51] | 500 to 5000 nM | 500 to 5000 nM | 500 to 5000 nM
CC(=O)N1[C@H](C)CN(c2cccc(-c3c[nH]c4ncc(NC(=O)Oc5ccc(C)cc5)cc34)n2)C[C@@H]1C [Compound 61] | < 500 nM | < 500 nM | 500 to 5000 nM
CC(=O)N1[C@H](C)CN(c2cccc(-c3c[nH]c4ncc(NC(=O)OCC(C)(C)C)cc34)n2)C[C@@H]1C [Compound 64] | < 500 nM | < 500 nM | 500 to 5000 nM
CC(=O)N1[C@H](C)CN(c2cccc(-c3c[nH]c4ncc(NC(=O)OC(C)C)cc34)n2)C[C@@H]1C [Compound 65] | < 500 nM | < 500 nM | 500 to 5000 nM
COc1ccc(OC(=O)Nc2cnc3[nH]cc(-c4cccc(N5C[C@@H](C)N(C(C)=O)[C@@H](C)C5)n4)c3c2)cc1 [Compound 71] | < 500 nM | < 500 nM | 500 to 5000 nM
CC(=O)N1[C@H](C)CN(c2cccc(-c3c[nH]c4ncc(C(=O)OCC(C)C)cc34)n2)C[C@@H]1C [Compound 74] | < 500 nM | < 500 nM | < 500 nM
CC(=O)N1[C@H](C)CN(c2cccc(-c3c[nH]c4ncc(O)cc34)n2)C[C@@H]1C [Compound 77] | < 500 nM | < 500 nM | 500 to 5000 nM
CN1C2CCC1CN(c1cccc(-c3c[nH]c4ncc(Cl)cc34)n1)CC2 (stereo not shown) [Compound 82] | < 500 nM | < 500 nM | < 500 nM
COC(=O)N1CCCN(c2cccc(-c3c[nH]c4ncc(Cl)cc34)n2)CC1 [Compound 83] | < 500 nM | < 500 nM | 500 to 5000 nM
CCOC(=O)N1CCCN(c2cccc(-c3c[nH]c4ncc(Cl)cc34)n2)CC1 [Compound 84] | < 500 nM | < 500 nM | 500 to 5000 nM
CCC(=O)N1CCN(c2cccc(-c3c[nH]c4ncc(Cl)cc34)n2)CC1 [Compound 85] | < 500 nM | < 500 nM | 500 to 5000 nM
CC(C)CC(=O)N1CCN(c2cccc(-c3c[nH]c4ncc(Cl)cc34)n2)CC1 [Compound 89] | < 500 nM | < 500 nM | 500 to 5000 nM
O=C(Nc1cccc(-c2c[nH]c3ncc(Cl)cc23)n1)OCc1ccccc1 [Compound 91] | 500 to 5000 nM | 500 to 5000 nM | 500 to 5000 nM
CC(=O)N1[C@H](C)CN(c2cccc(-c3c[nH]c4ncc(OCCN(C)C)cc34)n2)C[C@@H]1C [Compound 94] | 500 to 5000 nM | 500 to 5000 nM | 500 to 5000 nM
O=C(O)c1ccc(-c2c[nH]c3ncc(Cl)cc23)nc1 [Compound 106] | < 500 nM | < 500 nM | 500 to 5000 nM
CC(=O)N1[C@H](C)CN(c2cccc(-c3c[nH]c4ncc(C(=O)NCCN5CCOCC5)cc34)n2)C[C@@H]1C [Compound 108] | < 500 nM | < 500 nM | 500 to 5000 nM
COc1cnc2[nH]cc(-c3cccc(N4CCCN(C(C)=O)CC4)n3)c2c1 [Compound 112] | < 500 nM | < 500 nM | 500 to 5000 nM
CC(=O)N1[C@H](C)CN(c2cccc(-c3c[nH]c4ncc(NC(=O)CN5CCNCC5)cc34)n2)C[C@@H]1C [Compound 115] | < 500 nM | < 500 nM | 500 to 5000 nM
CC(=O)N1CCCN(c2cccc(-c3c[nH]c4ncc(C(=O)O)cc34)n2)CC1 [Compound 126] | 500 to 5000 nM | > 5000 nM | 500 to 5000 nM
C[C@@H](Nc1cccc(-c2c[nH]c3ncc(Cl)cc23)n1)C1CCCCC1 [Compound 129] | < 500 nM | 500 to 5000 nM | 500 to 5000 nM
CC(C)[C@H](CO)Nc1cccc(-c2c[nH]c3ncc(Cl)cc23)n1 [Compound 135] | < 500 nM | < 500 nM | < 500 nM
FC(F)(F)c1cc(NCc2ccccc2)cc(-c2c[nH]c3ncc(Cl)cc23)c1 [Compound 187] | < 500 nM | 500 to 5000 nM | 
O=C(O)c1ccc(-c2c[nH]c3ncc(Cl)cc23)c(F)c1 [Compound 188] | 500 to 5000 nM | > 5000 nM | 

Continued, values first:

Ki [1] | Ki [2] | Ki [3] | SMILES
< 500 nM | < 500 nM | < 500 nM | CCCOC(=O)Nc1cnc2[nH]cc(-c3cccc(N4C[C@@H](C)N(C(C)=O)[C@@H](C)C4)n3)c2c1 [Compound 62]
< 500 nM | < 500 nM | < 500 nM | CC(=O)N1[C@H](C)CN(c2cccc(-c3c[nH]c4ncc(NC(=O)OCC(C)C)cc34)n2)C[C@@H]1C [Compound 63]
< 500 nM | < 500 nM | < 500 nM | CCOC(=O)c1cnc2[nH]cc(-c3cccc(N4C[C@@H](C)N(C(C)=O)[C@@H](C)C4)n3)c2c1 [Compound 73]
< 500 nM | < 500 nM | 500 to 5000 nM | CCCC(=O)N1CCN(c2cccc(-c3c[nH]c4ncc(Cl)cc34)n2)CC1 [Compound 86]
< 500 nM | < 500 nM | 500 to 5000 nM | COC(=O)Nc1cccc(-c2c[nH]c3ncc(Cl)cc23)n1 [Compound 87]
< 500 nM | < 500 nM | 500 to 5000 nM | CCCOC(=O)Nc1cccc(-c2c[nH]c3ncc(Cl)cc23)n1 [Compound 88]
< 500 nM | < 500 nM | 500 to 5000 nM | CC(C)COC(=O)Nc1cccc(-c2c[nH]c3ncc(Cl)cc23)n1 [Compound 90]
< 500 nM | < 500 nM | 500 to 5000 nM | O=C(O)c1ccc(-c2c[nH]c3ncc(Cl)cc23)cc1 [Compound 104]
< 500 nM | < 500 nM | 500 to 5000 nM | NC(=O)c1ccc(-c2c[nH]c3ncc(Cl)cc23)cc1 [Compound 105]
< 500 nM | < 500 nM | 500 to 5000 nM | NC(=O)c1ccc(-c2c[nH]c3ncc(Cl)cc23)nc1 [Compound 107]
< 500 nM | < 500 nM | 500 to 5000 nM | CC(=O)N1[C@H](C)CN(c2cccc(-c3c[nH]c4ncc(C(=O)NCCCN5CCN(C)CC5)cc34)n2)C[C@@H]1C [Compound 109]
< 500 nM | < 500 nM | 500 to 5000 nM | CC(=O)N1[C@H](C)CN(c2cc(-c3nnn[nH]3)cc(-c3c[nH]c4ncc(Cl)cc34)n2)C[C@@H]1C [Compound 111]
< 500 nM | < 500 nM | 500 to 5000 nM | CC(=O)N1[C@H](C)CN(c2cccc(-c3c[nH]c4ncc(NC(=O)CN5CCOCC5)cc34)n2)C[C@@H]1C [Compound 116]
< 500 nM | < 500 nM | 500 to 5000 nM | CC(=O)N1[C@H](C)CN(c2cccc(-c3c[nH]c4ncc(NC(=O)N5CCOCC5)cc34)n2)C[C@@H]1C [Compound 127]
< 500 nM | < 500 nM | 500 to 5000 nM | Clc1cnc2[nH]cc(-c3cccc(NC4CCc5ccccc54)n3)c2c1 (stereo not shown) [Compound 133]
< 500 nM | < 500 nM | 500 to 5000 nM | CC(C)[C@@H](CO)Nc1cccc(-c2c[nH]c3ncc(Cl)cc23)n1 [Compound 134]
